Laboratory results as given in US20160095958A1, “BONE REGENERATION USING STROMAL VASCULAR FRACTION, PLATELET-DERIVED GROWTH FACTOR-RICH HYDROGEL, THREE-DIMENSIONAL PRINTED POLY-EPSILON-CAPROLACTONE SCAFFOLDS” (THE JOHNS HOPKINS UNIVERSITY, priority 2013, published 2016).

What was measured:
Format in all cases: cell-based, human
ASCs [1] = test: Monolayer osteogenic differentiation of ASCs (Alizarin Red S, calcium quantification); conditions: for calcium deposition per cell / total calcium deposition: ASCs in OM for 21 days, PDGF-BB 0, 2, 20 ng/mL or AG1295 0, 1, 10 μM
Procedure: (§1) Vascular medium (VM) consisted of: Endothelial Basal Medium-2 (Lonza), 6% FBS, 1% penicillin/streptomycin, 10 ng/mL VEGF165, 1 ng/mL FGF-2, and 1 μg/mL L-ascorbic acid-2-phosphate (Sigma). For monolayer osteogenic differentiation experiments, control medium consisted of low glucose DMEM (GIBCO Invitrogen), 6% FBS, and 1% penicillin/streptomycin; Osteogenic Medium (OM) consisted of control medium plus 10 mM β-glycerophosphate (Sigma) and 50 μM L-ascorbic acid-2-phosphate. For osteogenic differentiation in fibrin gels, OM also included 10 ng/mL VEGF165 and 1 ng/mL FGF-2 to support vascular viability. The composition of FGF-2 and dexamethasone in VM and OM were optimized to support both vascular and osteogenic development (FIG. 2). […] All growth factors were purchased from PeproTech.
(§2) For monolayer experiments, ASCs were seeded at 5000 cells/cm^2 and cultured in either control medium or OM for 21 days, with the addition of either PDGF-BB or PDGF receptor inhibitor tyrphostin AG1295 (Santa Cruz Biotechnology). Mineralization was assessed via Alizarin Red S staining and quantification of calcium content. For fibrin gel experiments, samples were cultured in VM for up to 8 days followed by up to 12 days of OM supplemented with VEGF and FGF-2. Mineralization was assessed via quantification of calcium content normalized to DNA content. For Alizarin Red S staining, monolayers were washed twice with PBS, fixed with 3.7% formaldehyde for 20 min, and then washed again three times. Samples were subsequently incubated for 10 min with 40 mM Alizarin Red S (Sigma) and washed extensively prior to imaging. To quantify calcium content in each sample, monolayers or whole fibrin gels were washed twice with PBS and then incubated with 0.5 N HCl overnight at 4° C. with agitation. Calcium content in the sample supernatants was quantified using a colorimetric Calcium LiquiColor Test (Stanbio). DNA content was quantified using a PicoGreen dsDNA quantitation kit (Molecular Probes) as previously described. Hutton D. L., et al., Tissue Eng Part A 18, 1729-40, 2012.
The effects of exogenous PDGF-BB on osteogenic differentiation and vascular morphogenesis of ASCs were studied independently. ASCs were cultured in OM for 21 days with the addition of either PDGF-BB (0 ng/mL, 2 ng/mL, or 20 ng/mL) or PDGF receptor inhibitor AG1295 (0 μM, 1 μM, or 10 μM).

ASCs [2] = test: Vascular morphogenesis of fibrin-encapsulated ASC spheroids in vascular medium
Procedure: Cells were trypsinized and resuspended at a concentration of 400,000 cells/mL (this concentration varied in the aggregation study where different cluster sizes were being compared) in culture medium containing 0.24% (w/v) methylcellulose (Sigma). The cell suspension was pipetted as 10 μL drops onto inverted Petri dish caps, which were then reverted and placed on dish bottoms containing sterile water to reduce evaporation. Dishes were incubated at 37° C. overnight to allow cellular aggregation at the air-liquid interface. The dish caps were then flooded with PBS to allow bulk collection and transfer of the spheroids to conical tubes.
(§3) Settled spheroid pellets were resuspended in fibrinogen (8 mg/mL final; Sigma), followed by the addition of thrombin (2.5 U/mL final; Sigma) to initiate gelation. Fibrin gels (35 μL) containing 40 spheroids each (in the aggregation study the number of spheroids per gel was varied to keep the total cell number constant) were pipetted into 6-mm diameter wells and incubated at 37° C. for 30 minutes to allow complete gelation prior to the addition of culture medium. Samples were then cultured for two to three weeks, depending on the experiment, with media changed every other day.
as §1
(§4) All incubation and washing steps were carried out at 4° C. with gentle agitation. Samples were fixed with 3.7% formaldehyde for 3 hrs, and then washed with PBS three times for 30 min each. Fixed gels were carefully removed from their wells and transferred to microcentrifuge tubes for subsequent staining procedures. Gels were permeabilized and blocked for 4 hrs with 0.2% triton X-100 and 5% normal goat serum (Sigma) in PBS with 0.1% Tween (PTw). Samples were then incubated overnight with primary antibodies diluted in blocking solution, followed by three 1-hr washes in PTw. Primary antibodies included: mouse anti-CD31 (4 μg/mL; Santa Cruz Biotechnology) and either rabbit anti-laminin (7 μg/mL; Sigma), rabbit anti-osteocalcin (10 μg/mL; Santa Cruz Biotechnology), or rabbit anti-NG2 (10 μg/mL; Millipore). Samples were then incubated overnight with DyLight 488-conjugated goat anti-mouse and DyLight 649-conjugated goat anti-rabbit (both 1:400; Jackson ImmunoResearch) diluted in blocking solution, followed by three 1-hr washes in PTw. Lastly, samples were blocked in 5% normal mouse serum for 4 hrs, incubated overnight with Cy3-conjugated mouse anti-αSMA (7 μg/mL; Sigma), and then washed three times for 1 hr each. Gels were mounted in 70% glycerol in chamber slides and imaged using a Zeiss LSM 510 confocal microscope with a 5× objective.
Confocal z-stacks of immunostained gels were z-projected and thresholded for subsequent quantification of vessel network parameters (n=6 images per group). Thresholded images were analyzed with AngioQuant software, Niemisto A., et al., IEEE Trans Med Imaging 24, 549-53, 2005, to quantify total vessel length, area, and interconnectivity. ImageJ software (NIH) was used to quantify pericyte coverage of vessels, which was defined as αSMA+ area within at least 5 μm of the abluminal face of vessel networks. […]

[3] = tested on: adipose-derived stem cells (ASCs); test: Osteogenic differentiation of ASCs with transient cytokine exposure; conditions: IL-1β only for the first two days, then cultured without it
Excerpt: In each case, the cytokine was provided for the first two days of culture and removed for the remaining 19 days. The samples are stained for calcium deposition (red) which is indicative of new bone formation;
Accordingly, cells were provided with IL-1β only for the first two days and cultured in the absence of IL-1β for the remaining three weeks of culture.

ASCs [4] = test: Vascularized bone co-development: encapsulated ASC spheroids, VM 8 days then OM 12 days
Procedure: as §3
as §1, with “viability.” for “viability. The composition of FGF-2 and dexamethasone in VM and OM were optimized to support both vascular and osteogenic development (FIG. 2).”
as §2, §4

[5] = medium optimization with dexamethasone and FGF-2

Molecule: Cc1cc2ncc(-c3ccccc3)nc2cc1C [AG1295, tyrphostin AG1295, reference compound]
- calcium deposition per cell (ASCs [1]): unchanged relative to the OM only group
- total calcium deposition (ASCs [1]): decreased in a dose dependent manner
- pericyte coverage (ASCs [2]; VM for 14 days): only slightly reduced

Molecule: FGF-2: fibroblast growth factor-2 (PeproTech)
- calcium deposition in osteogenic cultures (ASCs [1]; 1 ng/mL FGF-2, dexamethasone 0 nM to 10 nM): significantly greater calcium deposition
- pericyte coverage in vascular cultures (ASCs [2]; [5]): slight increase
- vessel network growth / length in vascular cultures (ASCs [2]; [5]): slight increase
- vessel width in vascular cultures (ASCs [2]; [5]): increased vessel width

Molecule: IL-1β: pro-inflammatory cytokine
- ASC differentiation into bone-forming cells [3]: dose dependent effect

Molecule: PDGF-BB: exogenous platelet-derived growth factor-BB, dimeric glycoprotein of two B chains, purchased from PeproTech
- calcium content versus control group (VM-OM) (ASCs [4]; 20 ng/mL): substantially greater than both
- vascular network length versus control group (VM-OM) (ASCs [4]; 20 ng/mL): substantially greater than both
- calcium deposition, PDGF-BB greater than BMP-2 (ASCs [4]; 20 ng/mL each): 4.2 fold
- calcium per cell, PDGF-BB greater than BMP-2 (ASCs [4]; 20 ng/mL each): 5.6 fold
- total vascular network length, PDGF-BB higher than BMP-2 (ASCs [4]; 20 ng/mL each): 2.3 fold
- calcium content per cell, greater than without PDGF-BB (ASCs [4]; 20 ng/mL throughout): 5.2 fold
- osteocalcin production (semiquantitative), greater than without PDGF-BB (ASCs [4]; 20 ng/mL throughout): 1.4 fold
- vascular network length, greater than without PDGF-BB (ASCs [4]; 20 ng/mL throughout): 2.7 fold
- αSMA intensity, less than without PDGF-BB (ASCs [4]; 20 ng/mL throughout): 2.1 fold
- calcium deposition per cell (ASCs [1]): significantly increased in a dose-dependent manner
- total calcium deposition (ASCs [1]): significantly increased in a dose-dependent manner
- increase in total vessel length (ASCs [2]; 2 ng/mL, VM for 14 days): 1.4 fold
- vessel width (ASCs [2]; 20 ng/mL, VM for 14 days): noticeably wider
- effect on total vessel length overall (ASCs [2]; VM for 14 days): did not have statistically significant effects
- reduction of pericyte coverage (ASCs [2]; VM for 14 days): 2.9 fold
